Laboratory results as given in patent publication US5459049A, “Motilin-like polypeptide and use thereof” (priority 1989, dated 1995).

Target: upper small intestine of rabbit (Oryctolagus cuniculus, UniProt G1T803)
Conditions: from ED50, contraction activity of native motilin taken as 100%
Description: An intestinal contraction activity was measured by Magnus method using upper small intestine of rabbit ["J. Pharm. Pharmac.", Vol. 28, pages 650-651 (1976)], on each motilin-like polypeptides (Example 1, wherein R1 is Hse, Asp-Gly-Ile-Phe-Hse, or Arg-Ile-Phe-Hse) according to the invention, as test samples and a conventional pure [Leu^13 ]-motilin, as control sample. The activities of the test samples and control sample were compared, under assumption of that an contraction activity caused by 10^-6 M acetylcholine is 100%.

Chain of upper small intestine of rabbit (G1T803 1-400): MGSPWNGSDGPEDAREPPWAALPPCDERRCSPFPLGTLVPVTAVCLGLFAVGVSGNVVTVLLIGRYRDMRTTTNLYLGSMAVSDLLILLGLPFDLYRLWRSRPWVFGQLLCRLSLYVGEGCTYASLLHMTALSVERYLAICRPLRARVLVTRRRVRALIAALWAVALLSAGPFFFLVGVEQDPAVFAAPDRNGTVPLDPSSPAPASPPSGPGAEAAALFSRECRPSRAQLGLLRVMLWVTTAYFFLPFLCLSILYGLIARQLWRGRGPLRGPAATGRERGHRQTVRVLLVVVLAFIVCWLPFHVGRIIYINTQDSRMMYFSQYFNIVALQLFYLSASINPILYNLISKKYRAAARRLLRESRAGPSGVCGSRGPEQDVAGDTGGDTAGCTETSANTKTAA

In the case of `CC[C@H](C)[C@H](NC(=O)[C@@H]1CCCN1C(=O)[C@@H](NC(=O)[C@@H](N)Cc1ccccc1)C(C)C)C(=O)N[C@@H](Cc1ccccc1)C(=O)N[C@H](C(=O)N[C@@H](Cc1ccc(O)cc1)C(=O)NCC(=O)N[C@@H](CCC(=O)O)C(=O)N[C@@H](CC(C)C)C(=O)N[C@@H](CCC(N)=O)C(=O)N[C@@H](CCCNC(=N)N)C(=O)N[C@@H](CCSC)C(=O)N[C@@H](CCC(N)=O)C(=O)N[C@@H](CCC(=O)O)C(=O)N[C@@H](CCCCN)C(=O)N[C@@H](CCC(=O)O)C(=O)N[C@@H](CCCNC(=N)N)C(=O)N[C@@H](CC(N)=O)C(=O)N[C@@H](CCCCN)C(=O)NCC(=O)N[C@@H](CCC(N)=O)C(=O)O)[C@@H](C)O` [native motilin], the “Activity in vitro (%)” value is reported as 100%.
